Tests used:
SW48 colon cancer cells = assay: Human tumor xenograft in vivo, SW48; details: Mus musculus, mice, read-out: % Inhibition (relative to vehicle control) SW48; for inhibition in vivo at 30 mg/kg: 30 mg/kg ip
Procedure: (§1) Eight to ten week old female BCD1 mice (Taconic Labs, Great Barrington, N.Y.) were injected subcutaneously in the flank area with 2×10^6 preconditioned HCT116 human colorectal carcinoma cells, SW48 colon cancer cells, and A549 lung cancer cells. Preconditioning of these cells was done by a minimum of three consecutive tumor transplantations in the same strain of nude mice. Subsequently, tumor fragments of approximately 30 mgs were excised and implanted subcutaneously in mice, in the left flank area, under Forene anesthesia (Abbott Labs, Geneva, Switzerland). When the tumors reached a mean volume of 100 mm^3, the mice were treated intraperitoneally by daily injection, with a solution of the histone deacetylase inhibitor in DMSO, at a starting dose of 10 mg/kg. The optimal dose of the HDAC inhibitor was established by dose response experiments according to standard protocols. Tumor volume was calculated every second day post infusion according to standard methods (e.g., Meyer et al., Int. J. Cancer 43: 851-856 (1989)).

A549 lung cancer cells = assay: Human tumor xenograft in vivo, A549; details: mice
Procedure: as §1

HCT116 cells = assay: MTT assay; format: cell-based; details: Homo sapiens, HCT-116, 72 hours
Procedure: HCT116 cells (2000/well) were plated into 96-well tissue culture plates one day before compound treatment. Compounds at various concentrations were added to the cells. The cells were incubated for 72 hours at 37° C. in 5% CO2 incubator. MTT (3-[4,5-dimethylthiazol-2-yl]-2,5diphenyl tetrazolium bromide, Sigma) was added at a final concentration of 0.5 mg/ml and incubated with the cells for 4 hours before one volume of solubilization buffer (50% N,N-dimethylformamide, 20% SDS, pH 4.7) was added onto the cultured cells. After overnight incubation, solubilized dye was quantified by colorimetric reading at 570 nM using a reference at 630 nM using an MR700 plate reader (Dynatech Laboratories Inc.). OD values were converted to cell numbers according to a standard growth curve of the relevant cell line. The concentration which reduces cell numbers to 50% of that of solvent treated cells is determined as MTT IC50. In Table 14, “a” indicates activity of ≦0.1 μM, “b” indicates activity of ≦1 μM, and “c” indicates activity of ≦5 μM.

Human HDAC-1 = Human HDAC-1 (Homo sapiens, UniProt Q13547); assay: HDAC-1 enzymatic inhibition, Assay 2 (Boc-Lys(Ac)-AMC, Fluor-de-Lys); format: biochemical; details: Assay 2: Boc-Lys(Ac)-AMC substrate, fluorescence; read-out: HDAC1 IC50
Procedure: Assay 2. The following protocol was also used to assay the compounds of the invention. In the assay, the buffer used was 25 mM HEPES, pH 8.0, 137 mM NaCl, 2.7 mM KCl, 1 mM MgCl2 and the substrate was Boc-Lys(Ac)-AMC in a 50 mM stock solution in DMSO. The enzyme stock solution was 4.08 μg/mL in buffer. The compounds were pre-incubated (2 μl in DMSO diluted to 13 μl in buffer for transfer to assay plate) with enzyme (20 μl of 4.08 μg/ml) for 10 minutes at room temperature (35 μl pre-incubation volume). The mixture was pre-incubated for 5 minutes at room temperature. The reaction was started by bringing the temperature to 37° C. and adding […] substrate. Total reaction volume was 50 μl. The reaction was stopped after 20 minutes by addition of 50 μl developer, prepared as directed by Biomol (Fluor-de-Lys developer, Cat. # KI-105). A plate was incubated in the dark for 10 minutes at room temperature before reading (λEx=360 nm, λEm=470 nm, Cutoff filter at 435 nm).
(§2) Assay 1 was used to measure HDAC activity of compounds 10c, 13e, 16d, 26b, 44, 47, 61a, 61b, 63, 134, 138, and 308. Assay 2 was used to measure HDAC activity of compounds 361, 366, 367, 368, 369, 370, 371, 372, 373, 374, 375, 376, 377, and 378. In Table 14, “a” indicates activity of ≦0.1 μM, “b” indicates activity of ≦1 μM, “c” indicates activity of ≦5 μM, and “d” indicates activity of >5 μm. For the H4-Ac T24 EC vs. MS-275 assay in Table 14, “u” indicates less than 1, “v” indicates 1, and “w” indicates greater than 1. For the H3 Ac t24 assay in Table 14, “x” indicates activity of ≦1 μM, “y” indicates activity of ≦10 μM, and “z” indicates activity of ≦20 μM.

[1] = system: Histone H3 acetylation in T24 human bladder cancer cells; assay: Histone H3 acetylation assay; format: cell-based; details: T-24, 16 h, concentration giving 50% of Emax of MS-275, read-out: H3 Ac t24
Procedure: T24 human bladder cancer cells growing in culture are incubated with HDAC inhibitors for 16 h. Cell viability is determined by adding 10 μl Alamar Blue (BioSource, DAL1100). Cells are washed once with PBS and fixed with methanol precooled to −20° C. for 10 min. The cells are then washed twice in PBS. The fixed cells are blocked with 50 μl of PBS+0.1% Triton X-100. Cells are probed with rabbit-anti-acetyl-H3 (Upstate #06-599) as the primary antibody and then with goat-anti-rabbit-HRP (Sigma #A-0545) as the secondary antibody. Fluorescence is read by fluorometer at Ex:550, Em:610, Cutoff:590 (Auto PMT, 15 reads/well) after addition of Amplex-Red. Fluorescence signal is normalized against cell viability derived from Alamar Blue. Maximum acetylation signal of MS-275 (fluorescence unit) is measured as Emax. The concentration of compound which gives 50% of Emax is EC50. In Table 14, “x” indicates activity of ≦1 μM, “y” indicates activity of ≦10 μM, and “z” indicates activity of ≦20 μM.

[2] = system: HCT116 human colorectal carcinoma cells; assay: Human tumor xenograft in vivo, HCT116; details: Mus musculus, HCT-116; 30 mg/kg ip, mice; read-out: % Inhibition (relative to vehicle control) HCT116
Procedure: as §1

[3] = system: Histone H4 acetylation in T24 human bladder cancer cells; assay: Histone H4 acetylation in whole cells by immunoblots; format: cell-based; details: ratio of EC50 of compound to EC50 of control MS-275, 16 h
Procedure: T24 human bladder cancer cells growing in culture were incubated with HDAC inhibitors for 16 h. Histones were extracted from the cells after the culture period as described by M. Yoshida et al. (J. Biol. Chem. 265(28): 17174-17179 (1990)). […] of total histone protein was loaded onto SDS/PAGE and transferred to nitrocellulose membranes. Membranes were probed with polyclonal antibodies specific for acetylated histone H-4 (Upstate Biotech Inc.), followed by horse radish peroxidase conjugated secondary antibodies (Sigma). Enhanced Chemiluminescence (ECL) (Amersham) detection was performed using Kodak films (Eastman Kodak). Acetylated H-4 signal was quantified by densitometry. Data are presented as the ratio of the concentration effective for […] the acetylated H-4 signal by 50% (EC50) using the indicated compound of the invention to a control compound, MS-275. If the indicated ratio is 1, then the compound of the invention is as effective as the MS-275 control compound. […] Further information regarding the MS-275 compound can be found in Suzuki et al., J. Med. Chem. 1999, pp. 3001-3003.

[4] = target: T1, cloned recombinant human HDAC-1 enzyme (Homo sapiens, UniProt Q13547); assay: HDAC-1 enzymatic inhibition, Assay 1 ([3H]-acetylated histone substrate); format: biochemical; details: Assay 1: [3H]-labeled acetylated histone substrate, recombinant hHDAC-1
T1 construct: made in house; host or cells: Baculovirus insect cell expression system
Procedure: Assay 1. HDAC inhibitors were screened against a cloned recombinant human HDAC-1 enzyme expressed and purified from a Baculovirus insect cell expression system. For deacetylase assays, 20,000 cpm of the [^3H]-metabolically labeled acetylated histone substrate (M. Yoshida et al., J. Biol. Chem. 265(28): 17174-17179 (1990)) was incubated with 30 μg of the cloned recombinant hHDAC-1 for 10 minutes at 37° C. The reaction was stopped by adding acetic acid (0.04 M, final concentration) and HCl (250 mM, final concentration). The mixture was extracted with ethyl acetate and the released [^3H]-acetic acid was quantified by scintillation counting. For inhibition studies, the enzyme was preincubated with compounds at 4° C. for 30 minutes prior to initiation of the enzymatic assay. IC50 values for HDAC enzyme inhibitors were determined by performing dose response curves with individual compounds and determining the concentration of inhibitor producing fifty percent of the maximal inhibition.
as §2

Chain of Human HDAC-1 (Q13547 whole entry): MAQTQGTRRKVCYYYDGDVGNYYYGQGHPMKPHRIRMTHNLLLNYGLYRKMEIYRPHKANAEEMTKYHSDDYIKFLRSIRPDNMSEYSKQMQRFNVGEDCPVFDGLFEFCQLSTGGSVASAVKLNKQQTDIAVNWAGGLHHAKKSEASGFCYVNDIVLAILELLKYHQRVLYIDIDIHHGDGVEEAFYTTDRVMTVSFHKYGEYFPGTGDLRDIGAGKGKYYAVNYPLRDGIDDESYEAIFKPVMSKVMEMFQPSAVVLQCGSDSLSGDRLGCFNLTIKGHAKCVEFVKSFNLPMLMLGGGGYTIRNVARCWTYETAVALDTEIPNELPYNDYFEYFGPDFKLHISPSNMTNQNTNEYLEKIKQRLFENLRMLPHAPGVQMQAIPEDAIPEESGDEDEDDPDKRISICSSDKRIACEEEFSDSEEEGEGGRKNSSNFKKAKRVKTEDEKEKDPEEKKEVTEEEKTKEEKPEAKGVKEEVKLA
T1 sequence (Q13547 whole entry): as above

IC50 (HCT116 cells) [nM] | IC50 (Human HDAC-1) [nM] | EC50 [1] [nM] | Compound | inhibition in vivo at 30 mg/kg (SW48 colon cancer cells) [%] | % Inhibition (relative to vehicle control) A549 (A549 lung cancer cells; 30 mg/kg ip) [%] | further results
100 to 1000 | ≤ 100 | ≤ 10000 | Nc1ccccc1NC(=O)c1ccc(N2CC[C@H](Nc3cccnc3)C2)cc1 [compound 361, (S)—N-(2-Aminophenyl)-4-(3-(pyridin-3-ylamino)pyrrolidin-1-yl)benzamide] | – | – | –
> 5000 | ≤ 100 | ≤ 1000 | Nc1ccccc1NC(=O)c1ccc(N2CC[C@H](Oc3ccc4c(c3)OCO4)C2)cc1 [compound 375, (S)—N-(2-Aminophenyl)-4-(3-(benzo[d][1,3]dioxol-5-yloxy)pyrrolidin-1-yl)benzamide] | – | – | –
100 to 1000 | 100 to 1000 | ≤ 1000 | Nc1ccccc1NC(=O)c1ccc(N2CC[C@H](Nc3ccccc3)C2)cc1 [compound 369, (S)—N-(2-Aminophenyl)-4-(3-(phenylamino)pyrrolidin-1-yl)benzamide] | – | – | –
100 to 1000 | ≤ 100 | ≤ 1000 | COc1cc(O[C@H]2CCN(c3ccc(C(=O)Nc4ccccc4N)cc3)C2)cc(OC)c1OC [compound 374, (S)—N-(2-Aminophenyl)-4-(3-(3,4,5-trimethoxyphenoxy)pyrrolidin-1-yl)benzamide] | – | – | –
100 to 1000 | 100 to 1000 | ≤ 10000 | Nc1ccccc1NC(=O)c1ccc(N2CC[C@H](Oc3cccnc3)C2)cc1 [compound 367, (S)—N-(2-Aminophenyl)-4-(3-(pyridin-3-yloxy)pyrrolidin-1-yl)benzamide] | – | – | –
1000 to 5000 | 100 to 1000 | ≤ 20000 | Nc1ccccc1NC(=O)c1ccc(N2CC[C@@H](Nc3cccnc3)C2)cc1 [compound 366, (R)—N-(2-Aminophenyl)-4-(3-(pyridin-3-ylamino)pyrrolidin-1-yl)benzamide] | – | – | –
100 to 1000 | 100 to 1000 | ≤ 10000 | Nc1ccccc1NC(=O)c1ccc(N2CC[C@H](Sc3ccccn3)C2)cc1 [compound 378, (S)—N-(2-Aminophenyl)-4-(3-(pyridin-2-ylthio)pyrrolidin-1-yl)benzamide] | – | – | –

The next lines start with the molecule.

Compound | IC50 (HCT116 cells) [nM] | IC50 (Human HDAC-1) [nM] | EC50 [1] [nM] | inhibition in vivo at 30 mg/kg (SW48 colon cancer cells) [%] | % Inhibition (relative to vehicle control) A549 (A549 lung cancer cells; 30 mg/kg ip) [%] | further results
CN(C)C(=O)c1ccc(-c2ccnc(NCc3ccc(C(=O)Nc4ccccc4N)cc3)n2)cn1 [29a, 5-{2-[4-(2-Amino-phenylcarbamoyl)-benzylamino]-pyrimidin-4-yl}-pyridine-2-carboxylic acid dimethylamide] | – | – | – | 70.2 | 31.8 | –
CN(C)CCOc1ccc2nc(NCc3ccc(C(=O)Nc4ccccc4N)cc3)sc2c1 [compound 138, N-(2-Amino-phenyl)-4-{[6-(2-dimethylamino-ethoxy)-benzothiazol-2-ylamino]-methyl}-benzamide] | ≤ 100 | – | – | – | 83.7 | inhibition in vivo at 30 mg/kg [2]: 79.8%; H4-Ac T24 EC vs. MS-275 [3]: u (“u” indicates less than 1); IC50 [4]: 1000 to 5000 nM
Nc1ccccc1NC(=O)c1ccc(CNc2nccc(-c3ccc(N4CCOCC4)nc3)n2)cc1 [34a, N-(2-Amino-phenyl)-4-{[4-(6-morpholin-4-yl-pyridin-3-yl)-pyrimidin-2-ylamino]-methyl}-benzamide] | – | – | – | 25.5 | 67.1 | –
Nc1ccccc1NC(=O)c1ccc(CNc2nccc(-c3ccccn3)n2)cc1 [26b, N-(2-Amino-phenyl)-4-[(4-pyridin-2-yl-pyrimidin-2-ylamino)-methyl]-benzamide] | ≤ 100 | – | – | – | – | inhibition in vivo at 40 mg/kg (SW48 colon cancer cells; 40 mg/kg ip): 75.1%; % Inhibition (relative to vehicle control) A549 (A549 lung cancer cells; 40 mg/kg ip): 74.4%; H4-Ac T24 EC vs. MS-275 [3]: v (“v” indicates 1); IC50 [4]: 1000 to 5000 nM
CN(C)CC(=O)Nc1ccc2nc(SCc3ccc(C(=O)Nc4ccccc4N)cc3)sc2c1 [compound 158, N-(2-Amino-phenyl)-4-[6-(2-dimethylamino-acetylamino)-benzothiazol-2-ylsulfanylmethyl]-benzamide] | – | – | – | 43.2 | 42.6 | –
COc1ccc(NCc2ccc(C(=O)Nc3ccccc3N)cc2)cc1F [212h, N-(2-Amino-phenyl)-4-[(3-fluoro-4-methoxy-phenylamino)-methyl]-benzamide] | – | – | – | 44 | 54.4 | –

Source: US8088805B2, “Inhibitors of histone deacetylase” (MethylGene Inc., priority 2004, dated 2012)
